Molecular target: T1, ΔF508-CFTR (Homo sapiens, UniProt P13569, DEL508-508)
T1 construct: expressed in transfected cells; host or cells: NIH3T3 mouse fibroblasts stably expressing ΔF508-CFTR for the optical, whole-cell and single-channel assays; Fisher rat epithelial (FRT) cells for Ussing chamber follow-up
Experiment: Assays for ΔF508-CFTR correction and potentiator properties (membrane potential optical and electrophysiological methods)
Assay type: cell-based
Conditions: CFTR modulation; for % Activity: % Efficacy; for EC50: tested using the above methods
From the text: Assays for Detecting and Measuring ΔF508-CFTR Correction and Potentiator Properties of Compounds
A) Membrane Potential Optical Methods for Assaying ΔF508-CFTR Modulation Properties of Compounds
The optical membrane potential assay utilized voltage-sensitive FRET sensors described by Gonzalez and Tsien (See, Gonzales, J. E. and R. Y. Tsien (1995) “Voltage sensing by fluorescence resonance energy transfer in single cells” Biophys J 69 (4): 1272-80, and Gonzalez, J. E. and R. Y. Tsien (1997) “Improved indicators of cell membrane potential that use fluorescence resonance energy transfer” Chem Biol 4 (4): 269-77) in combination with instrumentation for measuring fluorescence changes such as the Voltage/Ion Probe Reader (VIPR) (See, Gonzalez, J. E., K. Oades, et al. (1999) “Cell-based assays and instrumentation for screening ion-channel targets” Drug Discov Today 4 (9): 431-439).
These voltage sensitive assays are based on the change in fluorescence resonant energy transfer (FRET) between the membrane-soluble, voltage-sensitive dye, DiSBAC2 (3), and a fluorescent phospholipid, CC2-DMPE, which is attached to the outer leaflet of the plasma membrane and acts as a FRET donor. Changes in membrane potential (Vm) cause the negatively charged DiSBAC2(3) to redistribute across the plasma membrane and the amount of energy transfer from CC2-DMPE changes accordingly. The changes in fluorescence emission were monitored using VIPR™ II, which is an integrated liquid handler and fluorescent detector designed to conduct cell-based screens in 96- or 384-well microtiter plates.
To identify small molecules that correct the trafficking defect associated with ΔF508-CFTR; a single-addition HTS assay format was developed. The cells were incubated in serum-free medium for 16 hrs at 37° C. in the presence or absence (negative control) of test compound. As a positive control, cells plated in 384-well plates were incubated for 16 hrs at 27° C. to “temperature-correct” ΔF508-CFTR. The cells were subsequently rinsed 3× with Krebs Ringers solution and loaded with the voltage-sensitive dyes. To activate ΔF508-CFTR, […] and the CFTR potentiator, genistein ([…]), were added along with Cl^−-free medium to each well. The addition of Cl^−-free medium promoted Cl^− efflux in response to ΔF508-CFTR activation and the resulting membrane depolarization was optically monitored using the FRET-based voltage-sensor dyes.
To identify potentiators of ΔF508-CFTR, a double-addition HTS assay format was developed. During the first addition, a Cl^−-free medium with or without test compound was added to each well. After 22 sec, a second addition of Cl^−-free medium containing 2-10 µM forskolin was added to activate ΔF508-CFTR. The extracellular Cl^− concentration following both additions was 28 mM, which promoted Cl^− efflux in response to ΔF508-CFTR activation and the resulting membrane depolarization was optically monitored using the FRET-based voltage-sensor dyes.
• Bath Solution #1: (in mM) NaCl 160, KCl 4.5, CaCl2 2, MgCl2 1, HEPES 10, pH 7.4 with NaOH. • Chloride-free bath solution: Chloride salts in Bath Solution #1 are substituted with gluconate salts. • CC2-DMPE: Prepared as a 10 mM stock solution in DMSO and stored at −20° C. • DiSBAC2(3): Prepared as a 10 mM stock in DMSO and stored at −20° C. Cell Culture
NIH3T3 mouse fibroblasts stably expressing ΔF508-CFTR are used for optical measurements of membrane potential. The cells are maintained at 37° C. in 5% CO2 and 90% humidity in Dulbecco's modified Eagle's medium supplemented with 2 mM glutamine, 10% fetal bovine serum, 1×NEAA, β-ME, 1×pen/strep, and 25 mM HEPES in 175 cm^2 culture flasks. For all optical assays, the cells were seeded at 30,000/well in 384-well matrigel-coated plates and cultured for 2 hrs at 37° C. before culturing at 27° C. for 24 hrs. for the potentiator assay. For the correction assays, the cells are cultured at 27° C. or 37° C. with and without compounds for 16-24 hours.

T1 sequence (P13569 with tags, fused parts or gaps DEL508-508): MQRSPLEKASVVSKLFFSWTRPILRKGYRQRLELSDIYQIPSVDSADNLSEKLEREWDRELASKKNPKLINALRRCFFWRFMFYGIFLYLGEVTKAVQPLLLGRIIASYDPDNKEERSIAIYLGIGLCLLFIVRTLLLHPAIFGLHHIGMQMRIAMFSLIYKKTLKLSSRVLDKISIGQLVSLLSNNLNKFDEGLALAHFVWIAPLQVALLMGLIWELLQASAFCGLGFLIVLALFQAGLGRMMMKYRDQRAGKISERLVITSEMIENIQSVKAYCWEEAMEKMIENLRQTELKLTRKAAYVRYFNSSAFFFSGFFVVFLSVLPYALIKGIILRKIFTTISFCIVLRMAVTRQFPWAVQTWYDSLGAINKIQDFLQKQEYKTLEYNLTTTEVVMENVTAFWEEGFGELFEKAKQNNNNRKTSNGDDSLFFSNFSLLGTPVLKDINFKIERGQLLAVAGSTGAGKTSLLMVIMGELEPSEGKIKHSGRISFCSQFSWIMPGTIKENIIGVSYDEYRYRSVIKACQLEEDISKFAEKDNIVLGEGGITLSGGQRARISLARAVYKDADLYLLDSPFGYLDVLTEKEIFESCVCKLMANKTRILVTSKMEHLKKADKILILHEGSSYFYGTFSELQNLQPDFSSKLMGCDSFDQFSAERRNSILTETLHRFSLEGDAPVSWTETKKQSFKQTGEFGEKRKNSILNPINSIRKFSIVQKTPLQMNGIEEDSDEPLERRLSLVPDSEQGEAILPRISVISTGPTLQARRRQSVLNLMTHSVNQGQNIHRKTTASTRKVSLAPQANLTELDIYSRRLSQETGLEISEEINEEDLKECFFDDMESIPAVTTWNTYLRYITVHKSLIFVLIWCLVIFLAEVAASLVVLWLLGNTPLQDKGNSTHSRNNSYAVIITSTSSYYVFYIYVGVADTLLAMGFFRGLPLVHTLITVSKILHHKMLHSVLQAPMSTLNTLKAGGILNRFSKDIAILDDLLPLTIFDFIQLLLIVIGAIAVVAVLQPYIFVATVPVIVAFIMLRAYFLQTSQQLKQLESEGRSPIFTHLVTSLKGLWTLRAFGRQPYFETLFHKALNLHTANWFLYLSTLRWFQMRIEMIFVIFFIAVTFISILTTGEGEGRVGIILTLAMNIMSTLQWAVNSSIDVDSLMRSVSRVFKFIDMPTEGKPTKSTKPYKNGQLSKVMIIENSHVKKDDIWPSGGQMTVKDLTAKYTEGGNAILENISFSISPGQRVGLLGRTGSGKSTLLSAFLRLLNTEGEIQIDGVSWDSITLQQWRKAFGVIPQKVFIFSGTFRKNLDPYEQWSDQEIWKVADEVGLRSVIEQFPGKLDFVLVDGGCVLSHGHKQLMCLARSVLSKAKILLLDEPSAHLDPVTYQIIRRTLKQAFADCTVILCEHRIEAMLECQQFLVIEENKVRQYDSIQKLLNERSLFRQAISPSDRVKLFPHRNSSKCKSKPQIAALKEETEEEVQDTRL

Cc1ccc(-c2csc(NC(=O)c3ccccc3)n2)cc1 [compound 48]
% Activity: +++ (“+++” means >100%)
EC50: < 10 µM

COc1cccc(C(=O)Nc2nc(-c3ccccc3)cs2)c1 [compound 49]
% Activity: ++ (“++” means between 25% to 100%)
EC50: 10 to 25 µM

CCC(=O)Nc1nc(-c2ccccc2)c(-c2ccccc2)s1 [compound 50]
% Activity: +++ (“+++” means >100%)
EC50: < 10 µM

COc1ccccc1C(=O)Nc1nc(-c2ccccc2)c(-c2ccccc2)s1 [compound 51]
% Activity: +++ (“+++” means >100%)
EC50: < 10 µM

Cc1ccc(C(=O)Nc2nc(-c3ccccc3)c(-c3ccccc3)s2)cc1 [compound 52]
% Activity: +++ (“+++” means >100%)
EC50: < 10 µM

O=C(Nc1nc(-c2ccccc2)cs1)c1cccc(Cl)c1 [compound 53]
% Activity: +++ (“+++” means >100%)
EC50: < 10 µM

Cc1cccc(Cc2cnc(NC(=O)c3ccccc3Cl)s2)c1 [compound 54]
% Activity: ++ (“++” means between 25% to 100%)
EC50: 10 to 25 µM

O=C(Nc1nc(-c2ccccc2)cs1)C1CCCCC1 [compound 55]
% Activity: ++ (“++” means between 25% to 100%)
EC50: 10 to 25 µM

O=C(Nc1ncc(Cc2cccc(Cl)c2Cl)s1)C(c1ccccc1)c1ccccc1 [compound 56]
% Activity: ++ (“++” means between 25% to 100%)
EC50: < 10 µM

O=C(Nc1ncc(Cc2cc(Cl)ccc2Cl)s1)C(c1ccccc1)c1ccccc1 [compound 57]
% Activity: ++ (“++” means between 25% to 100%)
EC50: < 10 µM

CCC(C(=O)Nc1nc(-c2ccncc2)cs1)c1ccccc1 (centres unmarked) [compound 58]
% Activity: ++ (“++” means between 25% to 100%)
EC50: 10 to 25 µM

O=C(O)c1ccccc1C(=O)Nc1nc(-c2ccccc2)c(-c2ccccc2)s1 [compound 59]
% Activity: ++ (“++” means between 25% to 100%)
EC50: 10 to 25 µM

CC(CC(=O)O)CC(=O)Nc1nc(-c2ccccc2)c(-c2ccccc2)s1 (centres unmarked) [compound 60]
% Activity: ++ (“++” means between 25% to 100%)
EC50: 10 to 25 µM

O=C(O)CCCC(=O)Nc1nc(-c2ccccc2)c(-c2ccccc2)s1 [compound 61]
% Activity: ++ (“++” means between 25% to 100%)
EC50: 10 to 25 µM

O=C(Nc1nc(-c2ccccc2)c(-c2ccccc2)s1)c1c(F)cccc1F [compound 62]
% Activity: +++ (“+++” means >100%)
EC50: < 10 µM

CCc1ccccc1OCC(=O)Nc1nc2ccccc2s1 [compound 63]
% Activity: +++ (“+++” means >100%)
EC50: 10 to 25 µM

Cc1nc(NC(=O)COc2ccccc2C(C)C)sc1C [compound 64]
% Activity: +++ (“+++” means >100%)
EC50: < 10 µM

O=C(CN1CCCCC1)Nc1ncc(Cc2cccc3ccccc23)s1 [compound 65]
% Activity: ++ (“++” means between 25% to 100%)
EC50: 10 to 25 µM

Cc1ccc(C(=O)Nc2nc(C)c(C)s2)cc1 [compound 66]
% Activity: ++ (“++” means between 25% to 100%)
EC50: 10 to 25 µM

Cc1ccc(C(=O)Nc2nc(-c3ccccc3)cs2)cc1 [compound 67]
% Activity: ++ (“++” means between 25% to 100%)
EC50: 10 to 25 µM

O=C(Nc1nc(-c2ccccc2)c(-c2ccccc2)s1)c1ccccc1 [compound 68]
% Activity: ++ (“++” means between 25% to 100%)
EC50: < 10 µM

COc1ccccc1-c1csc(NC(=O)c2ccccc2)n1 [compound 69]
% Activity: +++ (“+++” means >100%)
EC50: 10 to 25 µM

Cc1cccc(C(=O)Nc2nc(-c3ccccc3)c(-c3ccccc3)s2)c1 [compound 70]
% Activity: +++ (“+++” means >100%)
EC50: < 10 µM

Cc1ccccc1C(=O)Nc1nc(-c2ccccc2)c(-c2ccccc2)s1 [compound 71]
% Activity: ++ (“++” means between 25% to 100%)
EC50: < 10 µM

COc1ccc(C(=O)Nc2nc(-c3ccccc3)c(-c3ccccc3)s2)cc1 [compound 72]
% Activity: +++ (“+++” means >100%)
EC50: < 10 µM

O=C(Nc1nc(-c2ccccc2)c(-c2ccccc2)s1)c1ccc(Cl)c(Cl)c1 [compound 73]
% Activity: ++ (“++” means between 25% to 100%)
EC50: 10 to 25 µM

O=C(Nc1nc(-c2ccccc2)c(-c2ccccc2)s1)c1ccc(Cl)cc1 [compound 74]
% Activity: ++ (“++” means between 25% to 100%)
EC50: 10 to 25 µM

Cc1ccccc1C(=O)Nc1nc(-c2ccccc2)cs1 [compound 75]
% Activity: ++ (“++” means between 25% to 100%)
EC50: 10 to 25 µM

COc1ccccc1C(=O)Nc1nc(-c2ccccc2)cs1 [compound 76]
% Activity: +++ (“+++” means >100%)
EC50: 10 to 25 µM

O=C(Nc1nc(-c2ccccc2)cs1)c1ccccc1Cl [compound 77]
% Activity: ++ (“++” means between 25% to 100%)
EC50: 10 to 25 µM

COc1ccc(C(=O)Nc2nc(-c3ccccc3)cs2)cc1 [compound 78]
% Activity: ++ (“++” means between 25% to 100%)
EC50: 10 to 25 µM

COc1ccccc1C(=O)Nc1nc(-c2ccccc2OC)cs1 [compound 79]
% Activity: ++ (“++” means between 25% to 100%)
EC50: 10 to 25 µM

COc1cccc(-c2csc(NC(=O)c3ccccc3OC)n2)c1 [compound 80]
% Activity: ++ (“++” means between 25% to 100%)
EC50: 10 to 25 µM

COc1cccc(-c2csc(NC(=O)c3ccccc3)n2)c1 [compound 81]
% Activity: ++ (“++” means between 25% to 100%)
EC50: 10 to 25 µM

COc1cccc(C(=O)Nc2nc(-c3cccc(OC)c3)cs2)c1 [compound 82]
% Activity: ++ (“++” means between 25% to 100%)
EC50: 10 to 25 µM

COc1cccc(-c2csc(NC(=O)c3ccc(C)cc3)n2)c1 [compound 83]
% Activity: +++ (“+++” means >100%)
EC50: 10 to 25 µM

COc1ccc(C(=O)Nc2nc(-c3cccc(OC)c3)cs2)cc1 [compound 84]
% Activity: ++ (“++” means between 25% to 100%)
EC50: 10 to 25 µM

CC(C)C(=O)Nc1nc(-c2ccccc2)cs1 [compound 85]
% Activity: ++ (“++” means between 25% to 100%)
EC50: 10 to 25 µM

CC(C)CC(=O)Nc1nc(-c2ccccc2)cs1 [compound 86]
% Activity: ++ (“++” means between 25% to 100%)
EC50: 10 to 25 µM

CC(C)(C)C(=O)Nc1nc(-c2ccccc2)cs1 [compound 87]
% Activity: ++ (“++” means between 25% to 100%)
EC50: 10 to 25 µM

Cc1cccc(C(=O)Nc2nc(-c3ccccc3)cs2)c1 [compound 88]
% Activity: +++ (“+++” means >100%)
EC50: 10 to 25 µM

O=C(Nc1ncc(Cc2ccccc2)s1)C1c2ccccc2Oc2ccccc21 [compound 89]
% Activity: +++ (“+++” means >100%)
EC50: < 10 µM

O=C(Nc1ncc(Cc2ccccc2Cl)s1)C1c2ccccc2Oc2ccccc21 [compound 90]
% Activity: +++ (“+++” means >100%)
EC50: < 10 µM

O=C(Nc1ncc(Cc2ccccc2Cl)s1)C(c1ccccc1)C1CCCCC1 (centres unmarked) [compound 91]
% Activity: +++ (“+++” means >100%)
EC50: < 10 µM

O=C(Nc1ncc(Cc2ccccc2)o1)C(c1ccccc1)C1CCCCC1 (centres unmarked) [compound 92]
% Activity: ++ (“++” means between 25% to 100%)
EC50: < 10 µM

O=C(Nc1ncc(Cc2ccccc2)s1)C1c2ccccc2-c2ccccc21 [compound 93]
% Activity: +++ (“+++” means >100%)
EC50: < 10 µM

Reference: patent US9249131B2, “Modulators of ATP-binding cassette transporters” (Vertex Pharmaceuticals Incorporated, priority 2003, dated 2016)
